The source of these data is US20260365653A1, “IRREVERSIBLE MUTEGFR INHIBITORS” (Bayer Aktiengesellschaft, priority 2022, published 2026).

The target in assay [1] is T1, mutEGFR (D770_N771insSVD) (Homo sapiens, UniProt P00533, DUP768-770).
T1 construct: GST-EGFR #3 (SVD between D770 and N771); made in house; host or cells: Sf9 insect cells (baculovirus)
Put plainly: Exon20-Mutant-EGFR (D770_N771insSVD) kinase assay (TR-FRET). The class given is biochemical. The note with it: mutEGFR (D770_N771insSVD) kinase assay IC50, Table 2a; D770_N771insSVD; 2 mM ATP. Background: Time-resolved FRET reads energy transfer from a long-lived donor to a nearby acceptor.

Assay [2] concerns the target T2, mutEGFR (D770_N771insNPG, T790) (Homo sapiens, UniProt P00533, INS770NPG/T790M).
T2 construct: exact insNPG construct not described; in-house EGFR proteins were N-terminal GST fusions from baculovirus/insect cells (borders R669-A1210 given only for WT, insSVD, insASV)
Put plainly: mutEGFR (D770_N771insNPG, T790) kinase assay. The class given is biochemical. To be noted: Table 2a, D770_N771insNPG. An excerpt:
The different EGFR proteins used in the biochemical kinase activity inhibition assays were generated inhouse by expression in insect cells using Baculo Virus system and subsequent purification as described in the following paragraphs.
The cDNAs encoding the various protein sequences from human EGFR human (P00533) were optimized for expression in eukaryotic cells and synthesized by the GeneArt Technology at Life Technologies.

The subject of a further assay is BA/F3 (insSVD) cells. Put plainly: Ba/F3-EGFR-insSVD cell survival assay (Cell Titer-Glo). Format: cell-based. To be noted: Table 3a, cell survival, Cell Titer-Glo, with 10 ng/ml EGF, without IL-3. The method in brief: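 Ba/F3 cells stably expressing retroviral EGFR-insSVD or insSVD T790M, grown without IL-3 on 10 ng/ml EGF, 4000 cells/well. Compound pinned in, 48 h at 37° C. Viability by CellTiter-Glo luminescence.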
For orientation: Cellular ATP, detected with luciferase, serves as a proxy for viable cell number.

T2 sequence (P00533 with tags, fused parts or gaps INS770NPG/T790M limits assumed): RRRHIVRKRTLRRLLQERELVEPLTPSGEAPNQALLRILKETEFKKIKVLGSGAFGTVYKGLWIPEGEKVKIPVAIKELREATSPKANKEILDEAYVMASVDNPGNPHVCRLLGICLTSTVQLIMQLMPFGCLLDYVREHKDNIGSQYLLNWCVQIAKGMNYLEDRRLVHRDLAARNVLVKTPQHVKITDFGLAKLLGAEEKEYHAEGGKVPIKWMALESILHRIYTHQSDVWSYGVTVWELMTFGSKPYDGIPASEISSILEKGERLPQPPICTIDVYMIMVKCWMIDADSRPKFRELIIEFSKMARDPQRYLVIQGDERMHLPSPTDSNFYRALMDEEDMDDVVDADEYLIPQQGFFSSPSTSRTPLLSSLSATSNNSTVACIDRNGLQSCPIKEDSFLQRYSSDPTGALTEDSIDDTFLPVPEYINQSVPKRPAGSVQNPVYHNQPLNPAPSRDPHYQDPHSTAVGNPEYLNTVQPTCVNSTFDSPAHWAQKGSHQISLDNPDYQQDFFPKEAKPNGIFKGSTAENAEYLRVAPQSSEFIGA
T1 sequence (P00533 with tags, fused parts or gaps DUP768-770): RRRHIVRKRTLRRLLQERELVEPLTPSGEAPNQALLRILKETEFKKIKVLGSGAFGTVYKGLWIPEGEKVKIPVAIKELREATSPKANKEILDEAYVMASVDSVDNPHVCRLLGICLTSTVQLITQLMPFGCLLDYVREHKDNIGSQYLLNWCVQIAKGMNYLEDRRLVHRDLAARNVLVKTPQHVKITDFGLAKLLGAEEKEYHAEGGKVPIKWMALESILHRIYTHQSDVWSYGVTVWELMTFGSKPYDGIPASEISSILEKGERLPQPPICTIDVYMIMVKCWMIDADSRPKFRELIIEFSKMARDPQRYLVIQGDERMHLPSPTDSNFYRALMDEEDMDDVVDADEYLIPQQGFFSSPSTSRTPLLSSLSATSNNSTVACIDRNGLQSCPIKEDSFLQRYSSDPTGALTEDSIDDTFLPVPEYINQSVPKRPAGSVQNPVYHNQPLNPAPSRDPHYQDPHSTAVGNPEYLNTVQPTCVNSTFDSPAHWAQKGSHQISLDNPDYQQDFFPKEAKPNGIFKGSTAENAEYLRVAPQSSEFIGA

The IC50 is the concentration that gives 50% inhibition. Low values mean greater potency, high ones weaker potency. As for `Cc1c[nH]c2nccc(-c3c(-c4ccc(Cl)cc4)nn4c3CN(C(=O)/C=C/CN(C)C)CC4)c12` [Example 183, (2E)-1-[2-(4-chlorophenyl)-3-(3-methyl-1H-pyrrolo[2,3-b]pyridin-4-yl)-6,7-dihydropyrazolo[1,5-a]pyrazin-5(4H)-yl]-4-(dimethylamino)but-2-en-1-one], the IC50 in assay [1] is 96.8 nM; in assay [2], 217 nM; in the assay on BA/F3 (insSVD) cells (Mus musculus, BaF3, 48 h) it was 65.6 nM.
Consider `CNC(=O)CC1CN(C(=O)/C=C/CN(C)C)Cc2c(-c3ccncc3)c(-c3ccc(F)cc3)nn21` (racemic) [Example 221, 2-[(7RS)-5-[(2E)-4-(dimethylamino)but-2-enoyl]-2-(4-fluorophenyl)-3-(pyridin-4-yl)-4,5,6,7-tetrahydropyrazolo[1,5-a]pyrazin-7-yl]-N-methylacetamide], for which the half-inhibitory concentration (IC50) was found to be 3.69 nM in assay [1]; 15.3 nM in assay [2]; 2510 nM with BA/F3 (insSVD) cells (Mus musculus, BaF3, 48 h).
In the case of `CCOc1ccc(-c2nn3c(c2-c2ccncc2)CN(C(=O)/C=C/CN(C)C)CC3)cc1` [Example 147, (2E)-4-(dimethylamino)-1-[2-(4-ethoxyphenyl)-3-(pyridin-4-yl)-6,7-dihydropyrazolo[1,5-a]pyrazin-5(4H)-yl]but-2-en-1-one], the IC50 was found to be 36 nM in assay [1]; 201 nM in assay [2]; 2940 nM in the assay on BA/F3 (insSVD) cells (Mus musculus, BaF3, 48 h).
On to `C=CC(=O)N1Cc2c(-c3ccncc3)c(-c3ccc(F)cc3)nn2C(CC(=O)NC)C1` (stereo not drawn) [Example 225, 2-(5-acryloyl-2-(4-fluorophenyl)-3-(pyridin-4-yl)-4,5,6,7-tetrahydropyrazolo[1,5-a]pyrazin-7-yl)-N-methylacetamide], for which the IC50 in assay [1] worked out at 10.1 nM; in assay [2], 36.6 nM; in the assay on BA/F3 (insSVD) cells (Mus musculus, BaF3, 48 h), 386 nM.
Turning to `COc1ccc(-c2nn3c(c2-c2ccncc2)CN(C(=O)/C=C/CN(C)C)CC3)cc1` [Example 30, (2E)-4-(dimethylamino)-1-[2-(4-methoxyphenyl)-3-(pyridin-4-yl)-6,7-dihydropyrazolo[1,5-a]pyrazin-5(4H)-yl]but-2-en-1-one], the IC50 in assay [1] came out at 7.25 nM; in assay [2], 23.7 nM; with BA/F3 (insSVD) cells (Mus musculus, BaF3, 48 h), 1080 nM.
Turning to `O=C(/C=C/CF)N1CCn2nc(-c3ccc(F)cc3)c(-c3ccncc3)c2C1` [Example 78, (2E)-4-fluoro-1-[2-(4-fluorophenyl)-3-(pyridin-4-yl)-6,7-dihydropyrazolo[1,5-a]pyrazin-5(4H)-yl]but-2-en-1-one], the IC50 in assay [1] amounted to 3.86 nM; in assay [2], 15.4 nM; in the assay with BA/F3 (insSVD) cells (Mus musculus, BaF3, 48 h), 115 nM.
With `CN(C)C/C=C/C(=O)N1CCn2nc(-c3cccc(C#N)c3)c(-c3ccncc3)c2C1` [Example 159, 3-{5-[(2E)-4-(dimethylamino)but-2-enoyl]-3-(pyridin-4-yl)-4,5,6,7-tetrahydropyrazolo[1,5-a]pyrazin-2-yl}benzonitrile], the IC50 in assay [1] is 83.1 nM; in assay [2], 38.7 nM; in the assay with BA/F3 (insSVD) cells (Mus musculus, BaF3, 48 h), 764 nM.
On to `C=CC(=O)N1Cc2c(-c3ccncc3)c(-c3ccc(F)cc3)nn2C(C)(C)C1` [Example 207, 1-[2-(4-fluorophenyl)-7,7-dimethyl-3-(pyridin-4-yl)-6,7-dihydropyrazolo[1,5-a]pyrazin-5(4H)-yl]prop-2-en-1-one], for which the IC50 was 0.644 nM in assay [1]; 2.22 nM in assay [2]; 24.6 nM in the assay with BA/F3 (insSVD) cells (Mus musculus, BaF3, 48 h).
In the case of `Cc1c[nH]c2nccc(-c3c(-c4ccc(F)cc4)nn4c3C(C)N(C(=O)/C=C/CN(C)C)CC4)c12` (single isomer, unassigned; isomer 1) [Example 268, (E)-4-(dimethylamino)-1-(2-(4-fluorophenyl)-4-methyl-3-(3-methyl-1H-pyrrolo[2,3-b]pyridin-4-yl)-6,7-dihydropyrazolo[1,5-a]pyrazin-5(4H)-yl) but-2-en-1-one (isomer 1)], the results for the concentration for half-maximal inhibition (IC50) (in assay [1]; in assay [2]; in the assay on BA/F3 (insSVD) cells (48 h)) were 940 nM, 446 nM and 279 nM, respectively.
For `COc1ccc(-c2nn3c(c2-c2ccnc4[nH]cc(C)c24)CN(C(=O)/C=C/CN(C)C)CC3)cc1` [Example 60, (2E)-4-(dimethylamino)-1-[2-(4-methoxyphenyl)-3-(3-methyl-1H-pyrrolo[2,3-b]pyridin-4-yl)-6,7-dihydropyrazolo[1,5-a]pyrazin-5(4H)-yl]but-2-en-1-one], the IC50 in assay [1] was found to be 939 nM; in assay [2], 1410 nM; in the assay with BA/F3 (insSVD) cells (Mus musculus, BaF3, 48 h), 647 nM.
For the compound `C=CC(=O)N1CCn2nc(-c3ccc(C(F)(F)F)cc3)c(-c3ccncc3)c2C1` [Example 44, 1-[3-(pyridin-4-yl)-2-[4-(trifluoromethyl)phenyl]-6,7-dihydropyrazolo[1,5-a]pyrazin-5(4H)-yl]prop-2-en-1-one], the IC50 is 0.989 nM in assay [1]; 2.8 nM in assay [2]; 39 nM in the assay on BA/F3 (insSVD) cells (Mus musculus, BaF3, 48 h).
Consider `CN1CC=C(C(=O)N2CCn3nc(-c4ccc(Cl)cc4F)c(-c4ccncc4)c3C2)C1` [Example 76, [2-(4-chloro-2-fluorophenyl)-3-(pyridin-4-yl)-6,7-dihydropyrazolo[1,5-a]pyrazin-5(4H)-yl](1-methyl-2,5-dihydro-1H-pyrrol-3-yl) methanone], for which the IC50 stood at 30.3 nM in assay [1]; 77.3 nM in assay [2]; 666 nM in the assay on BA/F3 (insSVD) cells (Mus musculus, BaF3, 48 h).
Consider `CN(C)C/C=C/C(=O)N1CCn2nc(-c3ccc(Cl)cc3F)c(-c3ccncc3)c2C1` [Example 26, (2E)-1-[2-(4-chloro-2-fluorophenyl)-3-(pyridin-4-yl)-6,7-dihydropyrazolo[1,5-a]pyrazin-5(4H)-yl]-4-(dimethylamino)but-2-en-1-one], for which the IC50 turned out to be 1.26 nM in assay [1]; 3.3 nM in assay [2]; 70.3 nM in the assay with BA/F3 (insSVD) cells (Mus musculus, BaF3, 48 h).
For `CCN(CC)C/C=C/C(=O)N1CCn2nc(-c3ccc(F)cc3)c(-c3ccncc3)c2C1` [Example 69, (2E)-4-(diethylamino)-1-[2-(4-fluorophenyl)-3-(pyridin-4-yl)-6,7-dihydropyrazolo[1,5-a]pyrazin-5(4H)-yl]but-2-en-1-one], the IC50 in assay [1] stood at 1.73 nM; in assay [2], 4.78 nM; with BA/F3 (insSVD) cells (Mus musculus, BaF3, 48 h) it was 194 nM.
For `Cc1c[nH]c2nccc(-c3c(-c4ccc(C(F)(F)F)cc4)nn4c3CN(C(=O)/C=C/CN(C)C)[C@@H](C)C4)c12` [Example 254, (2E)-4-(dimethylamino)-1-[(6S)-6-methyl-3-(3-methyl-1H-pyrrolo[2,3-b]pyridin-4-yl)-2-[4-(trifluoromethyl)phenyl]-6,7-dihydropyrazolo[1,5-a]pyrazin-5(4H)-yl]but-2-en-1-one] the same measures were 36 nM, 437 nM and 39.9 nM.
As to `O=C(/C=C/C(F)F)N1CCn2nc(-c3ccc(Cl)cc3F)c(-c3ccncc3)c2C1` [Example 74, (2E)-1-[2-(4-chloro-2-fluorophenyl)-3-(pyridin-4-yl)-6,7-dihydropyrazolo[1,5-a]pyrazin-5(4H)-yl]-4,4-difluorobut-2-en-1-one], the IC50 in assay [1] worked out at 0.183 nM; in assay [2], 0.807 nM; in the assay on BA/F3 (insSVD) cells (Mus musculus, BaF3, 48 h), 34 nM.
For the compound `C=CC(=O)N1CCn2nc(-c3ccc(Cl)cc3F)c(-c3ccncc3)c2C1C` (single isomer, unassigned; isomer 2) [Example 279, 1-[2-(4-chloro-2-fluorophenyl)-4-methyl-3-(pyridin-4-yl)-6,7-dihydropyrazolo[1,5-a]pyrazin-5(4H)-yl]prop-2-en-1-one (isomer 2)], the IC50 in assay [1] was 50.6 nM; in assay [2], 62.2 nM; in the assay with BA/F3 (insSVD) cells (48 h), 429 nM.
As for `C=CC(=O)N1Cc2c(-c3ccncc3)c(-c3ccc(Cl)cc3)nn2C(C)C1` (racemic) [Example 281, 1-[(7RS)-2-(4-chlorophenyl)-7-methyl-3-(pyridin-4-yl)-6,7-dihydropyrazolo[1,5-a]pyrazin-5(4H)-yl]prop-2-en-1-one], the concentration for half-maximal inhibition (IC50) was determined as 0.17 nM in assay [1]; 0.366 nM in assay [2]; 9.77 nM in the assay with BA/F3 (insSVD) cells (Mus musculus, BaF3, 48 h).
For `C=CC(=O)N1CCn2nc(-c3ccc(OCC)cc3)c(-c3ccncc3)c2C1` [Example 130, 1-[2-(4-ethoxyphenyl)-3-(pyridin-4-yl)-6,7-dihydropyrazolo[1,5-a]pyrazin-5(4H)-yl]prop-2-en-1-one], the IC50 in assay [1] came to 6.69 nM; in assay [2], 45.5 nM; in the assay on BA/F3 (insSVD) cells (Mus musculus, BaF3, 48 h), 980 nM.
On to `C=CC(=O)N1CCn2nc(-c3ccc(C)cc3F)c(-c3ccnc4[nH]ccc34)c2C1` [Example 102, 1-[2-(2-fluoro-4-methylphenyl)-3-(1H-pyrrolo[2,3-b]pyridin-4-yl)-6,7-dihydropyrazolo[1,5-a]pyrazin-5(4H)-yl]prop-2-en-1-one], for which the IC50 in assay [1] turned out to be 4.77 nM; in assay [2] it was 22.8 nM; in the assay on BA/F3 (insSVD) cells (Mus musculus, BaF3, 48 h), 49.8 nM.
On to `CN(C)C/C=C/C(=O)N1CCn2nc(-c3ccc(C#N)cc3)c(-c3ccncc3)c2C1` [Example 33, 4-{5-[(2E)-4-(dimethylamino)but-2-enoyl]-3-(pyridin-4-yl)-4,5,6,7-tetrahydropyrazolo[1,5-a]pyrazin-2-yl}benzonitrile], for which the IC50 in assay [1] was 8.35 nM; in assay [2], 67 nM; in the assay with BA/F3 (insSVD) cells (Mus musculus, BaF3, 48 h), 1840 nM.
